In patent US9725460B2, “Oridonin analogs, compositions, and methods related thereto” (THE BOARD OF REGENTS OF THE UNIVERSITY OF TEXAS SYSTEM, priority 2013, dated 2017):
Read-outs that look alike come from different tables or passages of the source.

Legend:
[1] = test system: MDA-MB-231; assay: MTT cancer cell proliferation assay, MDA-MB-231; format: cell-based, human
Method: (§1) In Vitro Determination of Effects of Synthesized Diterpenoids on Cancer Cell Proliferation. Breast cancer cell lines MCF-7, MDA-MB-231, […] and MCF/ADR were seeded in 96-well plates at a density of 1×10^4 cells/well and treated with DMSO and 0.01, 0.1, 1, 5, 10, and 100 μM of individual compound for 48 h, and then 20 μL of 3-(4,5-dimethylthiazol-2-yl)-2,5-diphenyltetrazolium bromide (MTT) (5 mg/mL in PBS) was added to each well and further incubated for another 4 h. Then MTT solution was removed, and 150 μL of DMSO was added to each well. Absorbance of all wells was determined by measuring OD at 550 nm after a 10 min incubation on a 96-well GlowMaxate absorbance reader (Promega, Madison, Wis.). Each individual compound was tested in quadruplicate wells for each concentration.
(§2) The growth inhibitory effects of the newly generated pyran-fused diterpenoids were evaluated in four breast cancer cell lines MCF-7 (ER-positive), MDAMB-231 (ER-negative and triple-negative), MDA-MB-468 (ER-negative and triple-negative) as well as MCF-7/ADR (adriamycin-resistant) using MTT assays as described in the Experimental Section.

[2] = test system: MCF-7/ADR; assay: MTT growth inhibition, drug-resistant MCF-7/ADR; format: cell-based, human; settings: Table 3, adriamycin-resistant, MTT 48 h, mean ± SE of three experiments
Method: as §1
as §2, with “Section. The capability of these new molecules to inhibit the growth of cancer cells was summarized in Table 3 and compared with that of adriamycin and 1 spontaneously.” for “Section.”

[3] = test system: MDA-MB-468; assay: MTT cancer cell proliferation assay, MDA-MB-468; format: cell-based, human; settings: Table 3, pyran-fused diterpenoids, MTT 48 h, mean ± SE of three experiments
Method: as §1
as §2, with “Section. The capability of these new molecules to inhibit the growth of cancer cells was summarized in Table 3 and compared with that of adriamycin and 1 spontaneously.” for “Section.”

[4] = test system: MCF-7; assay: MTT cancer cell proliferation assay, MCF-7; format: cell-based, human
Method: as §1, §2

[5] = test system: Panc-1; assay: Cancer cell proliferation assay, Panc-1; format: cell-based; settings: Homo sapiens, PANC-1
Method: (§3) In Vitro Determination of Effects of Synthesized Diterpenoids on Cancer Cell Proliferation. […] Then MTT solution was removed, and 150 μL of DMSO was added to each well. Absorbance of all wells was determined by measuring OD at 550 nm after a 10 min incubation on a 96-well GlowMaxate absorbance reader (Promega, Madison, Wis.). Each individual compound was tested in quadruplicate wells for each concentration.

[6] = test system: DU145; assay: Cancer cell proliferation assay, DU145; format: cell-based; settings: Homo sapiens, DU-145
[7] = test system: AsPC1; assay: Cancer cell proliferation assay, AsPC1; format: cell-based; settings: Homo sapiens, ASPC1
Method: as §3

[8] = Homo sapiens, MDA-MB-231, 48 h, Table 3, pyran-fused diterpenoids, MTT 48 h, mean ± SE of three experiments, read-out: IC50 (μM) MDA-MB-231
[9] = Homo sapiens, NCI/ADR-RES, 48 h
[10] = Homo sapiens, MCF7, 48 h, Table 3, pyran-fused diterpenoids, MTT 48 h, mean ± SE of three experiments, read-out: IC50 (μM) MCF-7
[11] = Homo sapiens, MDA-MB-231, Table 1a, breast cancer, read-out: IC50 (μM) MDA-MB-231
[12] = Homo sapiens, MDA-MB-231, Table 2b, mean of at least three experiments, read-out: Effect on proliferation MDA-MB-231 (ER negative) (IC50)
[13] = Table 1a, pancreatic cancer, read-out: IC50 (μM) Panc-1
[14] = Table 2b, mean of at least three experiments, read-out: Effect on proliferation Panc-1 (IC50)
[15] = Table 1a, prostate cancer, read-out: IC50 (μM) DU145
[16] = Table 2b, mean of at least three experiments, read-out: Effect on proliferation DU145 (IC50)
[17] = Table 1a, pancreatic cancer, read-out: IC50 (μM) AsPC1
[18] = Table 2b, mean of at least three experiments, read-out: Effect on proliferation AsPC1 (IC50)
[19] = Homo sapiens, MCF7, Table 1a, breast cancer, read-out: IC50 (μM) MCF-7
[20] = Homo sapiens, MCF7, Table 2b, mean of at least three experiments, read-out: Effect on proliferation MCF-7 (ER positive) (IC50)
[21] = Table 3, pyran-fused diterpenoids, MTT 48 h, mean ± SE of three experiments, read-out: IC50 (μM) MDA-MB-231
[22] = Table 3, pyran-fused diterpenoids, MTT 48 h, mean ± SE of three experiments, read-out: IC50 (μM) MCF-7

Row | Structure (SMILES) | IC50 [1, 8] [µM] | IC50 [2, 9] [µM] | IC50 ([3]; Homo sapiens, MDA-MB-468, 48 h) [µM] | IC50 [4, 10] [µM] | IC50 [1, 11] [µM] | IC50 [1, 12] [µM] | IC50 [5, 13] [µM] | IC50 [5, 14] [µM] | IC50 [6, 15] [µM] | IC50 [6, 16] [µM] | IC50 [7, 17] [µM] | IC50 [7, 18] [µM] | IC50 [4, 19] [µM] | IC50 [4, 20] [µM] | further results
1 | COc1cccc2c1C(=O)c1c(O)c3c(c(O)c1C2=O)C[C@@](O)(C(=O)CO)C[C@@H]3O[C@H]1C[C@H](N)[C@H](O)[C@H](C)O1 [Adriamycin, reference compound] | 2.33 ± 0.22 | > 10 | 0.65 ± 0.26 | 0.67 ± 0.45 | – | – | – | – | – | – | – | – | – | – | –
2 | C=C1C(=O)[C@]23[C@H](O)[C@H]1CC[C@H]2[C@@]12CO[C@]3(O)[C@@H](O)[C@@H]1C(C)(C)Cc1sc(N)nc12 [CYD-5-41, (5aR,6S,7S,7aR,10S,12aS,12bR,15R)-2-amino-6,7,15-trihydroxy-5,5-dimethyl-9-methylene-5,5a,6,7,10,11,12,12a-octahydro-4H-7,12b-(epoxymethano)-7a,10-methanocyclohepta[7,8]naphtho[1,2-d]thiazol-8(9H)-one] | – | – | – | – | 3.24 | 3.2 | 6.13 | 6.1 | 3.46 | 3.5 | 5.58 | 5.6 | 1.02 | 1 | –
3 | C=C1C(=O)[C@@]23C(CC[C@H]1[C@H]2O)[C@@]12CO[C@]3(O)[C@@H](O)C1C(C)(C)Cc1sc(NC(C)=O)nc12 (stereo partly drawn) [CYD-6-21, N-((6S,7S,7aR,10R,12bR,15R)-6,7,15-trihydroxy-5,5-dimethyl-9-methylene-8-oxo-5,5a,6,7,8,9,10,11,12,12a-decahydro-4H-7,12b-(epoxymethano)-7a,10-methanocyclohepta[7,8]naphtho[1,2-d]thiazol-2-yl)acetamide] | – | – | – | – | 6.82 | 6.8 | 6.71 | 6.7 | 6.34 | 6.3 | 4.83 | 4.8 | 1.99 | 2 | –
4 | C=C1C(=O)[C@@]23C(CC[C@H]1[C@H]2O)[C@@]12CO[C@]3(O)[C@@H](O)C1C(C)(C)Cc1sc(N3CCCCCC3)nc12 (stereo partly drawn) [CYD-6-26-2, (6S,7S,7aR,10R,12bR,15R)-2-(azepan-1-yl)-6,7,15-trihydroxy-5,5-dimethyl-9-methylene-5,5a,6,7,10,11,12,12a-octahydro-4H-7,12b-(epoxymethano)-7a,10-methanocyclohepta[7,8]naphtho[1,2-d]thiazol-8(9H)-one] | – | – | – | – | 6.82 | 6.8 | 6.29 | 6.3 | 4.74 | 4.7 | 2.3 | 2.3 | 1.15 | 1.2 | –
5 | C=C1C(=O)[C@@]23[C@@H]4OC(C)(C)O[C@@]25OC[C@]2(C6=C(CC[C@@H](OCC)O6)CC(C)(C)[C@H]2[C@@H]5O)[C@@H]3CC[C@@H]14 [CYD-8-45-1] | – | – | – | – | – | – | – | – | – | – | – | – | – | – | IC50 [1, 21]: 6.13 ± 2.43 µM; IC50 [2]: 4.65 ± 3.15 µM; IC50 [3]: 5.4 ± 0.98 µM; IC50 [4, 22]: 3.52 ± 2.15 µM
6 | C=C1C(=O)[C@@]23[C@@H]4OC(C)(C)O[C@@]25OC[C@]2(C6=C(CC[C@@H](OCC)O6)CC(C)(C)[C@H]2[C@@H]5O)[C@@H]3CC[C@@H]14 [CYD-8-45-2] | – | – | – | – | – | – | – | – | – | – | – | – | – | – | IC50 [1, 21]: 0.54 ± 0.14 µM; IC50 [2]: 1.64 ± 0.72 µM; IC50 [3]: 0.52 ± 0.18 µM; IC50 [4, 22]: 0.44 ± 0.27 µM
7 | C=C1C(=O)[C@]23[C@H](O)[C@H]1CC[C@H]2[C@@]12CO[C@@]3(O)[C@@H](O)[C@@H]1C(C)(C)CC1=C2O[C@@H](OCC)CC1 [CYD-8-50] | 3.32 ± 1.01 | 3.18 ± 0.89 | 2.24 ± 0.68 | 1.9 ± 0.97 | – | – | – | – | – | – | – | – | – | – | –
8 | C=C1C(=O)[C@@]23[C@@H]4OC(C)(C)O[C@@]25OC[C@]2(C6=C(CC[C@H](OCC(C)C)O6)CC(C)(C)[C@H]2[C@@H]5O)[C@@H]3CC[C@@H]14 [CYD-8-52-1] | 1.76 ± 0.22 | 4.42 ± 0.9 | 2.62 ± 0.08 | 2.24 ± 1.33 | – | – | – | – | – | – | – | – | – | – | –
9 | C=C1C(=O)[C@@]23[C@@H]4OC(C)(C)O[C@@]25OC[C@]2(C6=C(CC[C@@H](OCC(C)C)O6)CC(C)(C)[C@H]2[C@@H]5O)[C@@H]3CC[C@@H]14 [CYD-8-52-2] | 8.18 ± 0.57 | 10.3 ± 1.65 | 6.95 ± 1.01 | 5.83 ± 3.75 | – | – | – | – | – | – | – | – | – | – | –
